Results: ChEMBL document CHEMBL1150252, “Heteroaromatic ester inhibitors of hepatitis A virus 3C proteinase: Evaluation of mode of action” (Bioorg Med Chem, 2008)
Values joined by “and” are separate entries in the source; they are usually repeats but may differ in a detail not shown here. Equal entries are not always repeated.

Tests used:
Hepatovirus A [1] = test: Inhibition of hepatitis A virus 3C proteinase at 10 uM by microplate assay
Hepatovirus A [2] = test: Inhibition of hepatitis A virus 3C proteinase at 1 uM by microplate assay
Hepatovirus A [3] = test: Inhibition of hepatitis A virus 3C proteinase at 0.25 uM by microplate assay
Hepatovirus A [4] = test: Ratio of Kcat to Km of hepatitis A virus 3C proteinase
[5] = Inhibition of hepatitis A virus 3C proteinase by microplate assay; design: species or system Hepatovirus A
Hepatovirus A [6] = test: Activity of hepatitis A virus 3C proteinase assessed as compound hydrolysis by HPLC
[7] = system: O=C(Oc1cncc(Br)c1)c1ccco1; test: Ratio of Kcat to Km of SARS coronavirus 3CL proteinase; conditions: Severe acute respiratory syndrome-related coronavirus
[8] = system: O=C(Oc1cncc(Br)c1)c1ccco1; test: Activity of SARS coronavirus 3CL proteinase assessed as compound hydrolysis by HPLC; conditions: Severe acute respiratory syndrome-related coronavirus
Replicase polyprotein 1a = Replicase polyprotein 1a (Severe acute respiratory syndrome-related coronavirus, UniProt P0C6U8); test: Inhibition of SARS coronavirus 3CL proteinase

Compound	inhibition (Hepatovirus A [1])	inhibition (Hepatovirus A [2]) [%]	further results
O=C(Oc1cncc(Cl)c1)c1ccc(F)cc1	> 90%	45	
O=C(Oc1cccnc1)c1cccs1	83%	21	
O=C(Oc1cncc(Cl)c1)C1CCCCC1	81%	32	
O=C(Oc1cccc(Cl)c1)c1ccco1	11%		
O=C(OCc1cncc(Br)c1)c1ccco1	67%		
O=C(Oc1cncc(Cl)c1)c1ccccc1[N+](=O)[O-]	> 90%	24	
O=C(Nc1ccncc1)c1cccs1	< 10%		
O=C(Oc1ccco1)c1cccnc1	> 90%		
O=C(Oc1cncc(Cl)c1)c1ccc(-c2ccccc2[N+](=O)[O-])o1	37%		
CCN(CC)c1ccc(C(=O)Oc2cncc(Cl)c2)cc1	64%		
COc1ccc(C(=O)Oc2cncc(Cl)c2)cc1	85%		
O=C(Oc1cncc(Cl)c1)c1cc2ccccc2[nH]1	80%	58	
O=C(Nc1cccnc1)c1cccs1	< 10%		
O=C(Oc1cncc(Cl)c1)c1ccc2[nH]ccc2c1	87%	60	inhibition (Hepatovirus A [3]): 22%
Cc1ccccc1C(=O)Oc1cncc(Cl)c1	82%		
O=C(Oc1cncc(Cl)c1)c1c[nH]cn1	33%	47	inhibition (Hepatovirus A [3]): 34%
O=C(Oc1cncc(Cl)c1)c1ccc2[nH]nnc2c1	> 90%		
Cc1ccc(OC(=O)c2cccs2)c([N+](=O)[O-])n1	14%		
O=C(Oc1cncc(Cl)c1)c1ccc2c(c1)OCO2	> 90%	11	
O=C(Oc1cncc(Cl)c1)c1cnccn1	22%		
O=C(Oc1cncc(Cl)c1)c1ccc(-c2ccccc2C(F)(F)F)o1	> 90%		inhibition (Hepatovirus A [3]): < 10%
O=C(Oc1cncc(Cl)c1)c1ccncc1	37%	34	
Cc1cccc(C(=O)Oc2cncc(Cl)c2)c1	63%	32	
Cc1ccc(OC(=O)c2cccs2)nc1	12%		
Cc1ccc(OC(=O)c2cccs2)cn1	23%		
O=C(Oc1cncc(Cl)c1)c1cc2ccccc2o1	> 90%	> 90	inhibition (Hepatovirus A [3]): < 10%
O=C(Oc1cncc(Br)c1)c1ccco1		> 90	kcat/Km (Hepatovirus A [4]): 10 ×10³ /M/s; inhibition (Hepatovirus A [3]): 87%; IC50 [5]: 53 nM; Km (Hepatovirus A [6]): 0.12 µM; kcat (Hepatovirus A [6]): 119 ×10⁻⁵ /s

Compound	inhibition (Hepatovirus A [1])	inhibition (Hepatovirus A [2]) [%]	further results
Replicase polyprotein 1a (Severe acute respiratory syndrome-related coronavirus) (from UniProt P0C6U8)			kcat/Km [7]: 7 ×10³ /M/s; Km [8]: 0.026 µM; kcat [8]: 17 ×10⁻⁵ /s
O=C(/C=C/c1ccccc1)Oc1cncc(Cl)c1	> 90%	53	
O=C(Oc1ccccn1)c1cccs1	89%	8	
O=C(Oc1cncc(Cl)c1)c1cnc2cc(C(F)(F)F)ccc2c1O	< 10%		
O=C(Nc1ccccn1)c1cccs1	< 10%		
O=C(Oc1cncc(Cl)c1)c1ccc(Br)o1	> 90%		inhibition (Hepatovirus A [3]): 54%; IC50 [5]: 1200 nM
O=C(Oc1cncc(Cl)c1)c1cc2ccccc2s1	> 90%	47	
O=C(Nc1ccc(Cl)cn1)c1cccs1	< 10%		
O=C(Nc1cccnc1Cl)c1cccs1	< 10%		
O=C(Oc1cncc(Cl)c1)c1c[nH]c2ccccc12	13%		
O=C(/C=C/c1ccco1)Oc1cncc(Cl)c1	83%	> 90	kcat/Km (Hepatovirus A [4]): 1.4 ×10³ /M/s; inhibition (Hepatovirus A [3]): 43%; IC50 [5]: 140 nM; Km (Hepatovirus A [6]): 0.18 µM; kcat (Hepatovirus A [6]): 25 ×10⁻⁵ /s
O=C(Oc1cncc(Cl)c1)c1cn[nH]c1	56%	21	
Cc1ccsc1C(=O)Oc1cncc(Cl)c1	< 10%		
O=C(Oc1cncc(Cl)c1)c1ccc(Cl)cc1O	> 90%	59	inhibition (Hepatovirus A [3]): 10%
O=S(=O)(Nc1cccnc1)c1cccs1	< 10%		
O=C(Oc1cncc(Cl)c1)c1cccs1	93% and > 90%	> 90	inhibition (Hepatovirus A [3]): 50%; IC50 [5]: 470 nM; IC50 (Replicase polyprotein 1a): 500 nM
Cc1cccc(OC(=O)c2cccs2)n1	91%	< 10	
CNc1ccc(C(=O)Oc2cncc(Cl)c2)cc1	82%	< 10	
O=C(Oc1cccnc1Cl)c1cccs1	11%		
O=C(Oc1cncc(Cl)c1)c1cscn1	> 90%	85	inhibition (Hepatovirus A [3]): 37%
NS(=O)(=O)c1ccc(C(=O)Oc2cncc(Cl)c2)cc1	64%	57	inhibition (Hepatovirus A [3]): < 10%
O=C(Oc1cncc(Cl)c1)c1ccccc1Cl	> 90%	67	inhibition (Hepatovirus A [3]): 23%
O=C(Oc1cncc(Cl)c1)c1ccc(-c2cc(C(F)(F)F)ccc2Cl)o1	76%	36	
O=C(Oc1cncc(Cl)c1)c1cc([N+](=O)[O-])[nH]n1	54%	69	inhibition (Hepatovirus A [3]): 53%; IC50 [5]: 250 nM
O=C(Oc1ccc(Cl)nc1)c1cccs1	25%		
O=C(Oc1cncc(Cl)c1)c1cccc2ccccc12	> 90%	30	
O=C(Oc1cncc(Cl)c1)c1cc(F)c(Cl)nc1Cl	44%	19	

Compound	inhibition (Hepatovirus A [1])	inhibition (Hepatovirus A [2]) [%]	further results
Cc1ccc(C(=O)Oc2cncc(Cl)c2)cc1	77%	70	
CN(C)c1ccc(C(=O)Oc2cncc(Cl)c2)cc1	> 90%	> 90	inhibition (Hepatovirus A [3]): 20%
O=C(Oc1cncc(Cl)c1)c1cccc(Cl)c1	29%	50	
O=C(Nc1ccc(F)cn1)c1cccs1	< 10%		
O=C(Oc1cncc(Cl)c1)c1ccoc1	> 90%		
COc1ccc(C(=O)Oc2cncc(Cl)c2)cc1OC	59%		
O=C(Oc1cncc(Cl)c1)c1ccc[nH]1	92%	< 10	inhibition (Hepatovirus A [3]): < 10%
O=C(Oc1cncc(Cl)c1)c1ccc(-c2ccccc2)cc1	39%	23	
Nc1ccc(C(=O)Oc2cncc(Cl)c2)cc1	> 90%	26	
O=C(Oc1cncc(Cl)c1)c1cc2ccccc2oc1=O	75%		
O=C(Oc1cncc(Cl)c1)c1ccccc1	> 90%	> 90	inhibition (Hepatovirus A [3]): < 10%
COc1ccccc1C(=O)Oc1cncc(Cl)c1	85%	57	inhibition (Hepatovirus A [3]): < 10%
O=C(Oc1cncc(Cl)c1)c1ccc2ncsc2c1	74%	54	inhibition (Hepatovirus A [3]): 27%
O=C(Oc1cncc(Cl)c1)c1ccco1	> 90%	> 90	kcat/Km (Hepatovirus A [4]): 4.6 ×10³ /M/s; inhibition (Hepatovirus A [3]): 49%; IC50 [5]: 338 nM; Km (Hepatovirus A [6]): 0.24 µM; kcat (Hepatovirus A [6]): 110 ×10⁻⁵ /s
O=C(Oc1cncc(Cl)c1)c1ccc2[nH]cnc2c1	82%	75	inhibition (Hepatovirus A [3]): 32%
O=C(Cc1cccnc1)c1cccs1	10%		
Cc1ccc(C(=O)Oc2cncc(Cl)c2)s1	> 90%		inhibition (Hepatovirus A [3]): 24%
O=C(Oc1cncc(Cl)c1)c1ccc(-c2ccc(Cl)cc2)o1	> 90%		inhibition (Hepatovirus A [3]): 36%
O=C(Oc1cncc(Cl)c1)c1ccc2ccccc2c1	23%	35	
Cc1onc(-c2ccccc2)c1C(=O)Oc1cncc(Cl)c1	< 10%		inhibition (Hepatovirus A [3]): < 10%
O=C(Oc1cncc(Cl)c1)c1ccc(-c2ccc(Cl)cc2[N+](=O)[O-])o1	40%		
O=C(Oc1cccc(Cl)n1)c1cccs1	16%		
Cc1ncccc1OC(=O)c1cccs1	< 10%	< 10	
O=C(Oc1ccncc1)c1cccs1	< 10%	10	
COc1cccc(C(=O)Oc2cncc(Cl)c2)c1	> 90%	50	
Clc1cncc(OCc2ccco2)c1	< 10%		
